pIC50: −log10 of the molar value. Values joined by “and” are separate entries in the source; they are usually repeats but may differ in a detail not shown here. Equal values may be shown once.

Experiment [1] addresses T1, human thrombin (Homo sapiens, UniProt P00734).
T1 construct: 1U/ml human thrombin
Kind of experiment: Measurement of thrombin inhibition action. It counts as biochemical. To be noted: substrate S-2238, 30 minutes incubation, A405. As for the experimental part: Measurement of thrombin inhibition action
(§1) 70 μl of the specimen stepwisely diluted with water was mixed with 90 μl of a 100 mM Tris buffer solution (pH 8.4), 20 μl of a 50 mM Tris buffer solution (pH 8.4) of 1U/ml human thrombin, and a 2 mM substrate (Daiichikagaku. S-2238), incubated for 30 minutes, mixed with 50 μl of 50% acetic acid, and then subjected to the measurement of absorbance (A405). A blank was prepared by adding the Tris buffer solution instead of the thrombin, and a control was prepared by adding water instead of the specimen. A 50% inhibition activity (IC50) was determined, and used as the index of the thrombin inhibition action.

In experiment [2] the target is human FXa (Homo sapiens, UniProt P00742). Kind of experiment: Measurement of activated blood coagulation factor X (FXa)-inhibiting action. To be noted: substrate S-2765, 30 minutes incubation, A405, read-out: FXa inhibition activity (IC50). The format is biochemical. Here is the method:
Measurement of activated blood coagulation factor X (FXa)-inhibiting action
as §1, with “A specimen was dissolved in water or in water containing an organic solvent (DSMO, ethanol or methanol) in a proper concentration to prepare a specimen. 70” for “70”, “50 mU/ml” for “1U/ml”, “FXa,” for “thrombin,”, “S-2765),” for “S-2238),”, “FXa-inhibiting” for “thrombin inhibition”

Chain of human FXa (P00742 235-488 limits assumed): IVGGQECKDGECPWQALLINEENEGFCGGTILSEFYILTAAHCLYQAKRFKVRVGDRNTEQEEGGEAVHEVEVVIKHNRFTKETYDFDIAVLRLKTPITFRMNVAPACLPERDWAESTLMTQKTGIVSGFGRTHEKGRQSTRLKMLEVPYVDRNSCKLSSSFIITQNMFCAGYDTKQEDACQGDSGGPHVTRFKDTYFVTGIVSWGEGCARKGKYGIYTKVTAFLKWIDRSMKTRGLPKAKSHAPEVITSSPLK
Chain of human FXa (P00742 41-179 partner limits assumed): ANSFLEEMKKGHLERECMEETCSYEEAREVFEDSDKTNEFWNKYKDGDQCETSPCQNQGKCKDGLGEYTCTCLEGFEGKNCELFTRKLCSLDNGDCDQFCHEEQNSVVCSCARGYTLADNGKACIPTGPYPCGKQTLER

For the compound `COC(=O)c1cc(COc2cccc(CN)c2)cc(-c2cccc(C(=N)N)c2)c1` [Example 5], the pIC50 was less than 4.00 in experiment [1] and 5.00 to 6.00 in experiment [2].

With `COC(=O)c1cc(COc2ccc(C(C)C)cc2)cc(-c2cccc(C(=N)N)c2)c1` [Example 3], the pIC50 in experiment [2] was 5.00 to 6.00.

Consider `COC(=O)c1cc(-c2cccc(C(=N)N)c2)ccc1COc1cccc(CN)c1` [Example 20], for which the pIC50 in experiment [1] was less than 4.00; in experiment [2] it was 4.00 to 5.00.

For `CC(C)c1ccc(OCc2cc(C(=O)O)cc(-c3cccc(C(=N)N)c3)c2)cc1` [Example 4], the pIC50 in experiment [2] was 5.00 to 6.00.

Compound `COC(=O)c1cc(COc2cccc(N)c2)cc(-c2cccc(C(=N)N)c2)c1` [Example 13] had a pIC50 in experiment [1] of less than 4.00.

In the case of `N=C(N)c1cccc(-c2cc(COc3cccc(CN)c3)cc(C(=O)O)c2)c1` [Example 6], the pIC50 in experiment [1] was less than 4.00; in experiment [2] it was 5.00 to 6.00.

On to `COC(=O)c1cc(COc2ccc3c(c2)CNC3)cc(-c2cccc(C(=N)N)c2)c1` [Example 18], for which, in experiment [2], the pIC50 was 6.00 to 7.00.

As to `COC(=O)c1cc(COCc2ccccc2)cc(-c2cccc(C(=N)N)c2)c1` [Example 23], the pIC50 in experiment [2] is 5.00 to 6.00.

For `COC(=O)c1cc(COc2cccnc2N)cc(-c2cccc(C(=N)N)c2)c1` [Example 11], the pIC50 in experiment [1] is less than 4.00; in experiment [2], 4.00 to 5.00.

In the case of `COC(=O)c1cc(COc2cccc(CO)c2)cc(-c2cccc(C(=N)N)c2)c1` [Example 15], the pIC50 in experiment [2] was 5.00 to 6.00 and 4.00 to 5.00.

`CNc1ccc(OCc2cc(C(=O)OC)cc(-c3cccc(C(=N)N)c3)c2)cc1` [Example 16] gave a pIC50 in experiment [1] of 4.00 to 5.00.

Consider `COC(=O)c1cc(COc2cccc(CCN)c2)cc(-c2cccc(C(=N)N)c2)c1` [Example 9], for which the pIC50 was less than 4.00 in experiment [1] and 5.00 to 6.00 in experiment [2].

Regarding `N=C(N)c1cccc(-c2cc(COc3cccc(CCN)c3)cc(C(=O)O)c2)c1` [Example 10], the pIC50 in experiment [1] is less than 4.00; in experiment [2], 5.00 to 6.00.

`COC(=O)c1cc(COc2ccc3c(c2)CN(C(C)=N)C3)cc(-c2cccc(C(=N)N)c2)c1` [Example 19]: the pIC50 in experiment [1] is 4.00 to 5.00; in experiment [2] it was 6.00 to 7.00.

Take `COC(=O)c1cc(COc2ccc(C)cc2N)cc(-c2cccc(C(=N)N)c2)c1` [Example 12]: the pIC50 in experiment [1] was less than 4.00; in experiment [2], 5.00 to 6.00.

By pIC50 is commonly meant −log10 of the IC50, conventionally taken in molar units.

These data come from patent US6348478B1, “Biphenylamidine derivatives” (Teijin Limited, priority 1997, dated 2002).
